Experimental data reported in ChEMBL document CHEMBL3856260, “A synergistic antitumor effect of polyphyllin I and formosanin C on hepatocarcinoma cells” (Bioorg Med Chem Lett, 2016).
Active and inactive are the calls of the source. The rule behind the calls is not given here.

How the values were obtained:
[1] = Cytotoxicity against human Bel7402 cells assessed as combination index at ED50 using 1:1 compound to formosanin C incubated for 24 hrs by MTT assay; format: functional, Bel-7402
[2] = test system: HepG2; assay: Induction of nuclear fragmentation in human HepG2 cells at 1 uM after 24 hrs by Hoechst 33258 staining-based fluorescence microscopic analysis; format: functional, cell-based
[3] = test system: HepG2; assay: Increase in p21 mRNA level in human HepG2 cells at 1 uM incubated for 24 hrs by RT-PCR analysis in presence of formosanin C relative to polyphyllin I alone treatment; format: functional, cell-based
[4] = test system: HepG2; assay: Induction of Bax translocation from cytosol to mitochondria in human HepG2 cells by Western blot analysis; format: functional, cell-based
[5] = Cytotoxicity against human Bel7402 cells assessed as combination index at ED75 using 1:1 compound to formosanin C incubated for 24 hrs by MTT assay; format: functional, Bel-7402
[6] = Cell cycle arrest in human HepG2 cells assessed as accumulation at S phase at 1 uM after 24 hrs by propidium iodide staining-based flow cytometry in presence of formosanin C (reference value: 42.33%); format: functional
[7] = test system: HepG2; assay: Induction mitochondrial membrane potential changes in human HepG2 cells at 1 uM after 24 hrs by rhodamine 123 staining-based flow cytometry (reference value: 23.8+/-2.3%); format: functional
[8] = test system: HepG2; assay: Induction of apoptosis in human HepG2 cells at 1 uM after 24 hrs by propidium iodide staining-based flow cytometry in presence of formosanin C (reference value: 3.01%); format: functional
[9] = test system: HepG2; assay: Decrease in CDK2 level in human HepG2 cells at 1 uM incubated for 24 hrs by Western blot analysis in presence of FC; format: functional, cell-based
[10] = test system: HepG2; assay: Induction of apoptosis in human HepG2 cells assessed as downregulation of NF-kappaB […] level at 1 uM incubated for 24 hrs by RT-PCR analysis in presence of formosanin C; format: functional, cell-based
[11] = Induction of apoptosis in human HepG2 cells assessed as upregulation of caspase3 level at 1 uM incubated for 24 hrs by Western blot analysis in presence of formosanin C; format: functional, cell-based
[12] = Suppression of MMP9 expression in human HepG2 cells at 1 uM after 24 hrs by Western blot analysis in presence of FC; format: functional, cell-based
[13] = Suppression of MMP9 expression in human HepG2 cells assessed as reduction in enzyme activity at 1 uM after 24 hrs by zymographic analysis in presence of FC; format: functional, cell-based
[14] = Cytotoxicity against human HepG2 cells assessed as combination index at ED50 using 1:1 compound to formosanin C incubated for 24 hrs by MTT assay; format: functional
[15] = test system: HepG2; assay: Induction mitochondrial membrane potential changes in human HepG2 cells at 1 uM after 24 hrs by rhodamine 123 staining-based flow cytometry in presence of formosanin C (reference value: 23.8+/-2.3%); format: functional
[16] = test system: HepG2; assay: Induction of nuclear fragmentation in human HepG2 cells at 0.5 uM after 24 hrs by Hoechst 33258 staining-based fluorescence microscopic analysis in presence of formosanin C; format: functional, cell-based
[17] = test system: HepG2; assay: Decrease in cyclin E level in human HepG2 cells at 1 uM incubated for 24 hrs Western blot analysis in presence of FC; format: functional, cell-based
[18] = Induction of apoptosis in human HepG2 cells assessed as upregulation of caspase3 mRNA level at 1 uM incubated for 24 hrs by RT-PCR analysis in presence of formosanin C; format: functional, cell-based
[19] = Cytotoxicity against human Bel7402 cells after 24 hrs by MTT assay; format: functional, cell-based; details: Bel-7402, 24 h
[20] = Cytotoxicity against human HepG2 cells assessed as combination index at ED75 using 1:1 compound to formosanin C incubated for 24 hrs by MTT assay; format: functional
[21] = Induction of apoptosis in human HepG2 cells assessed as upregulation of p53 level at 1 uM incubated for 24 hrs by Western blot analysis in presence of formosanin C; format: functional, cell-based
[22] = Cytotoxicity against human HepG2 cells assessed as combination index at ED90 using 1:1 compound to formosanin C incubated for 24 hrs by MTT assay; format: functional
[23] = Cell cycle arrest in human HepG2 cells assessed as accumulation at S phase at 1 uM after 24 hrs by propidium iodide staining-based flow cytometry(reference value: 42.33%); format: functional
[24] = test system: HepG2; assay: Decrease in CDK2 level in human HepG2 cells at 1 uM incubated for 24 hrs by Western blot analysis in presence of formosanin C relative to relative to polyphyllin I alone treatment; format: functional, cell-based
[25] = test system: HepG2; assay: Change in PCNA mRNA level in human HepG2 cells at 1 uM incubated for 24 hrs by RT-PCR analysis in presence of formosanin C relative to polyphyllin I alone treatment; format: functional, cell-based
[26] = Cell cycle arrest in human HepG2 cells assessed as accumulation at G1 phase at 1 uM after 24 hrs by propidium iodide staining-based flow cytometry in presence of formosanin C (reference value: 55.62%); format: functional
[27] = Cytotoxicity against human HepG2 cells assessed as combination index at ED30 using 1:1 compound to formosanin C incubated for 24 hrs by MTT assay; format: functional
[28] = Cell cycle arrest in human HepG2 cells assessed as accumulation at G1 phase at 1 uM after 24 hrs by propidium iodide staining-based flow cytometry(reference value: 55.62%); format: functional
[29] = test system: HepG2; assay: Antimigratory activity in human HepG2 cells at 1 uM after 24 hrs by wound healing assay in presence of FC; format: functional, cell-based
[30] = test system: HepG2; assay: Induction of apoptosis in human HepG2 cells at 1 uM after 24 hrs by propidium iodide staining-based flow cytometry(reference value: 3.01%); format: functional
[31] = test system: HepG2; assay: Change in PCNA mRNA level in human HepG2 cells at 1 uM incubated for 24 hrs by RT-PCR analysis in presence of formosanin C relative to formosanin C treatment; format: functional, cell-based
[32] = test system: HepG2; assay: Induction of apoptosis in human HepG2 cells assessed as downregulation of Bcl2 mRNA level at 1 uM incubated for 24 hrs by RT-PCR analysis in presence of formosanin C; format: functional, cell-based
[33] = Cytotoxicity against human Bel7402 cells assessed as combination index at ED90 using 1:1 compound to formosanin C incubated for 24 hrs by MTT assay; format: functional, Bel-7402
[34] = Cell cycle arrest in human HepG2 cells assessed as accumulation at G2 phase at 1 uM after 24 hrs by propidium iodide staining-based flow cytometry(reference value: 2.04%); format: functional
[35] = test system: HepG2; assay: Induction of chromatin compaction in human HepG2 cells at 1 uM after 24 hrs by Hoechst 33258 staining-based fluorescence microscopic analysis; format: functional, cell-based
[36] = Induction of apoptosis in human HepG2 cells assessed as upregulation of p53 mRNA level at 1 uM incubated for 24 hrs by RT-PCR analysis in presence of formosanin C; format: functional, cell-based
[37] = test system: HepG2; assay: Increase in cyclin E mRNA level in human HepG2 cells at 1 uM incubated for 24 hrs by RT-PCR analysis in presence of formosanin C relative to polyphyllin I alone treatment; format: functional, cell-based
[38] = test system: HepG2; assay: Increase in p21 level in human HepG2 cells at 1 uM incubated for 24 hrs by Western blot analysis in presence of FC; format: functional, cell-based
[39] = Cell cycle arrest in human HepG2 cells assessed as accumulation at G2 phase at 1 uM after 24 hrs by propidium iodide staining-based flow cytometry in presence of formosanin C (reference value: 2.04%); format: functional
[40] = test system: HepG2; assay: Induction of Bax translocation from cytosol to mitochondria in human HepG2 cells by Western blot analysis in presence of FC; format: functional, cell-based
[41] = test system: HepG2; assay: Induction of chromatin compaction in human HepG2 cells at 0.5 uM after 24 hrs by Hoechst 33258 staining-based fluorescence microscopic analysis in presence of formosanin C; format: functional, cell-based
[42] = Cytotoxicity against human Bel7402 cells assessed as combination index at ED30 using 1:1 compound to formosanin C incubated for 24 hrs by MTT assay; format: functional, Bel-7402
[43] = test system: HepG2; assay: Induction of cytochrome c release in human HepG2 cells by Western blot analysis; format: functional, cell-based
[44] = Cytotoxicity against human HepG2 cells after 24 hrs by MTT assay; format: functional, cell-based; details: HepG2, 24 h
[45] = Induction of apoptosis in human HepG2 cells assessed as upregulation of Bax level at 1 uM incubated for 24 hrs by Western blot analysis in presence of formosanin C; format: functional, cell-based
[46] = Induction of apoptosis in human HepG2 cells assessed as upregulation of Bax mRNA level at 1 uM incubated for 24 hrs by RT-PCR analysis in presence of formosanin C; format: functional, cell-based
[47] = test system: HepG2; assay: Induction of cytochrome c release in human HepG2 cells by Western blot analysis in presence of FC; format: functional, cell-based

Q: Which results are given for `C[C@@H]1CC[C@@]2(OC1)O[C@H]1C[C@H]3[C@@H]4CC=C5C[C@@H](O[C@@H]6O[C@H](CO)[C@@H](O[C@@H]7O[C@@H](CO)[C@H](O)[C@H]7O)[C@H](O)[C@H]6O[C@@H]6O[C@@H](C)[C@H](O)[C@@H](O)[C@H]6O)CC[C@]5(C)[C@H]4CC[C@]3(C)[C@H]1[C@@H]2C`?
A: CI [1]: 0.58; Activity [2]: Active; Activity [3]: Active; Activity [4]: Active; CI [5]: 0.52; Activity [6]: 28.7%; Activity [7]: 27.9%; Activity [8]: 7.52%; Activity [9]: Active; Activity [10]: Active; Activity [11]: Active; Activity [12]: Active; Activity [13]: Active; CI [14]: 0.58; Activity [15]: 40.6%; Activity [16]: Active; Activity [17]: Active; Activity [18]: Active; IC50 [19]: 4.74 µM; CI [20]: 0.56; Activity [21]: Active; CI [22]: 0.54; Activity [23]: 38.4%; Activity [24]: Active; Activity [25]: Active; Activity [26]: 68.7%; CI [27]: 0.62; Activity [28]: 59.5%; Activity [29]: Active; Activity [30]: 5.28%; Activity [31]: Active; Activity [32]: Active; CI [33]: 0.46; Activity [34]: 2.15%; Activity [35]: Active; Activity [36]: Active; Activity [37]: Active; Activity [38]: Active; Activity [39]: 2.63%; Activity [40]: Active; Activity [41]: Active; CI [42]: 0.67; Activity [43]: Active; IC50 [44]: 4.01 µM; Activity [45]: Active; Activity [46]: Active; Activity [47]: Active
